Assay results: PMC8540349, “GOBP1 from the Variegated Cutworm Peridroma saucia (Hübner) (Lepidoptera: Noctuidae) Displays High Binding Affinities to the Behavioral Attractant (Z)-3-Hexenyl acetate” (Insects, 2021)
Entries after “also recorded” stand apart in the source; their conditions may differ.

Legend:
recombinant PsauGOBP1 [1] = assay: Affinity of fluorescent probe 1-NPN to PsauGOBP1 (direct titration); parameters: species or system Peridroma saucia; conditions: direct titration 2–16 µM 1-NPN, excitation 337 nm; single binding site; means of three replicates; read-out: dissociation constant of 1-NPN
Procedure: (§1) Emission fluorescence spectra were recorded on a Hitachi F-4500 at 25 °C, with a 1 cm light path quartz cuvette and 5 nm slits for both excitation and emission. The protein was dissolved in 50 mM Tris-HCl buffer, pH 7.4, and ligands were added as 1 mM methanol solutions. To measure the affinity of the fluorescent ligand N-phenyl-1-naphthylamine (1-NPN) to PsauGOBP1, a […] solution of the protein in 50 mM Tris-HCl, pH 7.4, was titrated with aliquots of 1 mM ligand in methanol to a final concentration of 16 µM. The probe was excited at 337 nm, and emission spectra were recorded between 380 and 450 nm. To analyze the binding affinity of other ligands to PsauGOBP1, a panel of 34 compounds including moth sex pheromones and host plant volatiles were used in the competitive-binding assay. A solution of the protein and 1-NPN, both at the concentration of […], was titrated with 1 mM methanol solutions of each competitor at a concentration of 12 (sex pheromones) or 16 µM (host plant volatiles).
The dissociation constant for 1-NPN and the stoichiometry of binding were obtained by processing the data with GraphPad Prism 6. […]

recombinant PsauGOBP1 [2] = assay: Fluorescence competitive-binding assay with 1-NPN as probe; parameters: species or system Peridroma saucia; conditions: mean ± SE; for IC50: 1-NPN displacement, Tris-HCl pH 7.4, 25 °C, read-out: IC50 (concentration of ligand halving the initial fluorescence value); for IC50 / Fluorescence (%) at Maximum Concentration: three experiments; for Kd: calculated from IC50 with KD = [IC50]/1 + [1-NPN]/K1-NPN, read-out: KD (calculated dissociation constant); for Fluorescence (%) at Maximum Concentration: remaining 1-NPN fluorescence
Procedure: as §1
The dissociation constant for 1-NPN and the stoichiometry of binding were obtained by processing the data with GraphPad Prism 6. Dissociation constants of the competitors were calculated from the corresponding IC50 values (concentrations of ligands that reduced the initial fluorescence value of 1-NPN by 50%), using the following equation: KD = [IC50]/1 + [1-NPN]/K1-NPN, where [1-NPN] is the free concentration of 1-NPN, and K1-NPN is the dissociation constant of the protein/1-NPN complex.

P. saucia antennae = assay: Electroantennogram (EAG) recording; parameters: species or system Peridroma saucia; conditions: dose 100 µg, two- to three-day-old males and females, versus paraffin oil control, n = 20
Procedure: Individual synthetic nonanal, citral, farnesol, benzaldehyde, (Z)-3-hexenyl acetate, and (Z)-3-hexen-1-ol was diluted with paraffin oil to make each solution of 10 μg/μL. Each solution was added onto a filter paper (0.2 × 1 cm), and the final loading capacity doses of each solution were 100 μg. A 10 μL volume of paraffin oil was used as the control. Two- to three-day-old male and female P. saucia were used to obtain EAG recordings for the six volatiles. As described by Sun et al. with modification, the antennae were cut from the head and used for electro-signal recordings. After a few segments of the tip were cut off, the antenna was glued to the antenna holder (using conductive gel, Spectra 360, Parker Lab, NJ, USA), and the antenna holder was inserted into the EAG probe. The EAG signal was first amplified with a DC/AC preamplifier (Syntech UN-06), and was further processed with Autospike software (Syntech, Hilversum, the Netherlands).
The EAG data were analyzed using GraphPad Prism 6. The level of significance was set at p < 0.05. Unpaired Student’s t-tests were used to compare the EAG responses of male vs. female P. saucia. For comparison of responses to the six volatiles, the EAG data were first subjected to a one-way ANOVA; this was done separately for males and females. If the ANOVA was significant, means were compared with Tukey’s multiple comparison test.

adult P. saucia = assay: Y-tube olfactometer behavioral bioassay; assay type: in vivo, Peridroma saucia
Procedure: A Y-tube olfactometer was used to assess the behavioral responses of male and female P. saucia to (Z)-3-hexenyl acetate as described by Yan and Wang with modifications. In brief, the system consisted of a central tube (20 cm long, 6 cm diameter) and two lateral arms (35 cm long, 6 cm diameter). (Z)-3-hexenyl acetate was dissolved in paraffin oil to obtain 10 µg/µL solutions. Filter paper (1 × 2 cm) with 10 µL of sample or 10 µL of paraffin oil was placed in a 250 mL flask. During the test, the room temperature was kept at 24 ± 2 °C with 70% ± 5% humidity and 0.6 lux of red light. […] Moths that moved more than half way along one of the lateral arms and remained for at least 5 s were recorded as having made a choice for the odor offered through that arm. After five individuals were tested, the olfactometer was turned and the flasks were switched in order to avoid positional effects. Tested compounds and paraffin oil were renewed every 5–10 min. The olfactometer and the flask were cleaned with water, ethanol, and acetone at the end of each day.
Chi-squared analyses were performed to determine whether the numbers of P. saucia that made a choice differed between the two odor sources (a 50:50 probability was set for the percentage of moths selecting the control and the test sides. The moths that made no choice were not included in the statistical analysis).

[3] = host plant volatiles, maximum concentration 16 (µM)
[4] = sex pheromones, maximum concentration 12 (µM)

Row | Structure (SMILES) | IC50 (recombinant PsauGOBP1 [2]) [µM] | Fluorescence (%) at Maximum Concentration (recombinant PsauGOBP1 [2]; [3]) [%] | further results
1 | c1ccc(Nc2cccc3ccccc23)cc1 [1-NPN, N-phenyl-1-naphthylamine] | – | – | Kd (recombinant PsauGOBP1 [1]): 1.9 µM
2 | O=Cc1ccccc1 [Benzaldehyde] | 19.3 ± 1.1 | 62 ± 2 | Kd (recombinant PsauGOBP1 [2]): 9.4 ± 0.5 µM; EAG response of male and female antennae (P. saucia antennae): strong responses; also recorded: relatively strong
3 | CCCCCCCCCCCCO [Dodecanol] | > 20 | 75 ± 8 | –
4 | CC/C=C\C[C@H]1C(=O)CC[C@@H]1CC(=O)O [Jasmonic acid] | > 20 | 68 ± 3 | –
5 | c1ccc2[nH]ccc2c1 [Indole] | > 20 | 70 ± 9 | –
6 | CCCC/C=C\CCCCCCCCCCO [Z11-16: OH] | > 20 | – | Fluorescence (%) at Maximum Concentration (recombinant PsauGOBP1 [2]; [4]): 70 ± 5%
7 | C=C1CC/C=C(\C)CC[C@@H]2[C@@H]1CC2(C)C [(E)-caryophyllene] | > 20 | 75 ± 1 | –
8 | CCC/C=C/COC(C)=O [(E)-2-hexenyl acetate] | > 20 | 77 ± 7 | –
9 | CC(C)=CCC/C(C)=C/CC/C(C)=C/CO [Farnesol] | 13.1 ± 1.2 | 47 ± 4 | Kd (recombinant PsauGOBP1 [2]): 6.4 ± 0.6 µM; EAG response of male and female antennae (P. saucia antennae): weak EAG responses and weak
10 | CC(C)=CCCC(C)=CC=O (mixture of isomers) [Citral] | 11.5 ± 1 | 40 ± 3 | Kd (recombinant PsauGOBP1 [2]): 5.6 ± 0.4 µM; EAG response of male and female antennae (P. saucia antennae): weak EAG responses and weak
11 | CC/C=C\CCCCCCCCOC(C)=O [Z9-12: Ac] | > 20 | – | Fluorescence (%) at Maximum Concentration (recombinant PsauGOBP1 [2]; [4]): 72 ± 2%
12 | C=CC(C)(O)CCC=C(C)C (stereo not drawn) [Linalool] | > 20 | 79 ± 2 | –
13 | CCCC/C=C\CCCCCCOC(C)=O [Z7-12: Ac] | > 20 | – | Fluorescence (%) at Maximum Concentration (recombinant PsauGOBP1 [2]; [4]): 74 ± 4%
14 | CC/C=C\CC1=C(C)CCC1=O [(Z)-jasmone] | > 20 | 83 ± 5 | –
15 | CCC/C=C/C=O [(E)-2-hexenal] | > 20 | 64 ± 4 | –
16 | C=CC(C)=CCC=C(C)C [Ocimene] | > 20 | 74 ± 7 | –

Now from value to compound, other results behind:

Row | IC50 (recombinant PsauGOBP1 [2]) [µM] | Fluorescence (%) at Maximum Concentration (recombinant PsauGOBP1 [2]; [3]) [%] | Structure (SMILES) | further results
17 | > 20 | 80 ± 5 | CC/C=C\CC1C(=O)CCC1CC(=O)OC (stereo not drawn) [Methyl jasmonate] | –
18 | > 20 | – | CCCC/C=C\CCCCCCCCCC=O [Z11-16: Ald] | Fluorescence (%) at Maximum Concentration (recombinant PsauGOBP1 [2]; [4]): 89 ± 1%
19 | > 20 | – | CCCCCC/C=C\CCCCCCCCO [Z9-16: OH] | Fluorescence (%) at Maximum Concentration (recombinant PsauGOBP1 [2]; [4]): 76 ± 1%
20 | > 20 | 64 ± 2 | CC(=O)OCCc1ccccc1 [Phenylethyl acetate] | –
21 | > 20 | 87 ± 4 | C=CC(=C)CC/C=C(\C)CCC=C(C)C [(E)-β-farnesene] | –
22 | > 20 | 85 ± 2 | CCCCCCCCCC=O [Decanal] | –
23 | > 20 | – | CCCC/C=C\CCCCCCCCOC(C)=O [Z9-14: Ac] | Fluorescence (%) at Maximum Concentration (recombinant PsauGOBP1 [2]; [4]): 78 ± 2%
24 | 8.2 ± 0.2 | 19 ± 2 | CC/C=C\CCOC(C)=O [(Z)-3-hexenyl acetate] | Kd (recombinant PsauGOBP1 [2]): 4 ± 0.1 µM; EAG response of male and female antennae (P. saucia antennae): strongest responses; also recorded: strongest EAG response; also recorded: strong responses; percentage of females showing chemotaxis to the compound (adult P. saucia; females, 10 µL of 10 µg/µL in paraffin oil versus paraffin oil, Y-tube): 68%; behavioral response (attraction) of both sexes (adult P. saucia; males and females, choice versus paraffin oil, chi-squared test): attractive; also recorded: attracted; also recorded: significant attraction; percentage of males showing chemotaxis to the compound (adult P. saucia; males, 10 µL of 10 µg/µL in paraffin oil versus paraffin oil, Y-tube): 64%
25 | > 20 | – | CCCC/C=C\CCCCCCCCCCOC(C)=O [Z11-16: Ac] | Fluorescence (%) at Maximum Concentration (recombinant PsauGOBP1 [2]; [4]): 70 ± 2%
26 | 17.4 ± 1.5 | 58 ± 3 | CC/C=C\CCO [(Z)-3-hexen-1-ol] | Kd (recombinant PsauGOBP1 [2]): 8.5 ± 0.6 µM; EAG response of male and female antennae (P. saucia antennae): strong responses; also recorded: relatively strong
27 | 13.9 ± 0.6 | 50 ± 2 | CCCCCCCCC=O [Nonanal] | Kd (recombinant PsauGOBP1 [2]): 6.8 ± 0.3 µM; EAG response of male and female antennae (P. saucia antennae): weak EAG responses and weak
28 | > 20 | 73 ± 3 | COC(=O)c1ccccc1O [Methyl salicylate] | –
29 | > 20 | – | CCCCCC/C=C\CCCCCCCC=O [Z9-16: Ald] | Fluorescence (%) at Maximum Concentration (recombinant PsauGOBP1 [2]; [4]): 82 ± 3%
30 | > 20 | 65 ± 4 | CCCCCCCO [Heptanol] | –
31 | > 20 | 94 ± 1 | C=CC(=C)CCC=C(C)C [β-myrcene] | –
32 | > 20 | 67 ± 2 | CCC/C=C/CO [(E)-2-hexen-1-ol] | –
33 | > 20 | 61 ± 6 | CCCCCCCC=O [Octanal] | –
34 | > 20 | 100 ± 5 | C=C(C)[C@H]1CC=C(C)CC1 [D-limonene] | –
35 | > 20 | 100 ± 2 | C=C1CCC2CC1C2(C)C (stereo not drawn) [β-pinene] | –
